{"source": "patent US20120258976A1", "about": "“CRYSTALLINE PYRROLO[2,3-D]PYRIMIDINE COMPOUNDS” (Pfizer Inc., priority 2011, published 2012)", "test": "Tofacitinib stability in PEG-based ointment formulations after storage at 40° C.", "type": "physicochemical", "text": "Topical formulations contain 3-((3R,4R)-4-methyl-3-[methyl-(7H-pyrrolo[2,3-d]pyrimidin-4-yl)amino]-piperidin-1-yl)-3-oxopropionitrile in therapeutically effective amounts that can be given in daily or twice daily doses to patients in need. These amounts range from about 0.1% to about 5.0% (w/v), more preferably, from about 0.1% to about 3.0%, more preferably still, from about 0.5% to about 2.3%, and, most preferably, about 2.0% (w/v). Among other excipients which enhance the stability of these formulations include aldehyde scavengers, such as glycerine and propylene glycol, and antioxidants, such as butyl hydroxyanisole (BHA), butyl hydroxytoluene (BHT), propyl gallate, ascorbic acid (Vitamin C), polyphenols, tocopherols (Vitamin E), and their derivatives. Preferably, PEG-based ointment formulations containing at least 30% polyethylene glycol, tofacifinib and one or more penetration enhancers and additional pharmaceutically acceptable excipients forming a stable formulation such that the level of total degradants is no more than 7% when the product is stored at 40° C. for 4 weeks. More preferably, addition of aldehyde scavengers and antioxidants into formulations Ointment 1 (A) and Ointment 2 (C) stabilized the polyethylene glycol containing ointment formulations such that the level of total degradants is no more than 5% when the product is stored at 40° C. for 4 weeks."}
{"smiles": "C[C@@H]1CCN(C(=O)CC#N)C[C@@H]1N(C)c1ncnc2[nH]ccc12", "note": "[tofacitinib, 3-((3R,4R)-4-Methyl-3-[methyl-(7H-pyrrolo[2,3-d]pyrimidin-4-yl)-amino]-piperidin-1-yl)-3-oxopropionitrile]", "values": [{"measurement": "Stability of tofacitinib in the presence of polyethylene glycol (PEG)", "result": "poor stability"}]}
